According to patent US20250388605A1, “HETEROBIFUNCTIONAL COMPOUNDS AND METHODS OF TREATING DISEASE” (Halda Therapeutics OpCo, Inc., priority 2022, published 2025):

Legend:
VCaP cells = assay: Cellular growth inhibition assay for VCaP cells, CellTiter-Glo; type: cell-based, human; conditions: 72 hours
Procedure: VCaP cells were purchased from American Type Cell Culture (ATCC Cat #CRL2876) and then seeded on poly-D-lysine coated, black clear-bottom 384-well plates at 5000/well in 25 μL Dulbecco's Modified Eagle Medium (DMEM) supplemented with 10% w/w Fetal bovine serum (FBS) and 1% w/w Pen-Strep. Pen-Strep is a commercially available mixture of penicillin G and streptomycin, which is used in mammalian cell culture media to prevent bacterial contamination. Dulbecco's Modified Eagle Medium (DMEM) supplemented with 10% w/w fetal bovine serum (FBS) and 1% w/w Pen-Strep is herein referred to as Treatment Medium. Following seeding of cells in the plates, the plates were spun at 300×g for 30 seconds, then equilibrated to room temperature for 30 minutes, and then deposited in a humidified tissue culture incubator maintained at 37° C. with 5% CO2.
(§1) At 24 hours after seeding of the cells, dilutions of test compound were prepared in DMSO and dissolved in Treatment Medium, to achieve a final DMSO concentration of 0.5% w/w, thereby providing the Test Compound Solution. A 25 μL aliquot of the Test Compound Solution was added to cells in the well plates. An equal volume of a solution containing DMSO and Treatment Medium was used as a negative control. Following treatment of cells with Test Compound Solution or said equal volume of a solution containing DMSO and Treatment Medium, the plates were spun at 300×g for 30 seconds, and then left in an incubator for 72 hours.
(§2) At the end of the treatment duration, cell viability was quantified with CellTiter-Glo 2.0 reagent (Promega Cat #G9243). For this purpose, plates were equilibrated to room temperature for 30 minutes, and then 25 μL of CellTiter-Glo 2.0 reagent was added to cells in the plate wells. Plates were then agitated on a shaker for two minutes at 500 rpm and subsequently incubated at room temperature for 10 minutes. Following incubation, the plates were spun at 3000×g for 30 seconds, then sealed with an optical adhesive cover, and luminescence readings were measured with an EnVision Plate Reader.
(§3) Data was normalized using zero luminescence for baseline. A four-parameter non-linear regression curve fit was applied to dose-response data in GraphPad Prism data analysis software to determine the half-maximal growth inhibitory concentration (GI50) for each test compound.

[1] = tested on: T-Rex 293 cell line SC3 cells having increased expression of androgen receptor protein due to exposure to doxycycline; assay: Cellular growth inhibition, T-Rex 293 SC3 cells with doxycycline (increased androgen receptor expression), CellTiter-Glo; type: cell-based; conditions: T-Rex 293 SC3 cells with 10 ng/mL doxycycline (increased androgen receptor expression), 72 hours, CellTiter-Glo 2.0
Procedure: (§4) The following types of cells were prepared for this experiment: (i) a T-Rex 293 cell line having increased expression of androgen receptor protein due to exposure to doxycycline and (ii) a T-Rex 293 cell line lacking increased expression of androgen receptor protein. Ability of the test compounds to inhibit proliferation of the foregoing cell types was evaluated according to the procedures set forth below.
(§5) The doxycycline-inducible androgen receptor protein expressing cell line was established using the following protocol: T-Rex 293 cells were purchased from Invitrogen (Cat #R71007) and transfected using Lipofectamine 2000 with the wild-type androgen receptor protein sequence cloned into the pcDNA4/TO vector. Transfected cells were selected using 400 μg/mL Zeocin (Invitrogen Cat #R25001). Following selection, single clones were raised and maintained in Dulbecco's Modified Eagle Medium (DMEM) supplemented with 10% w/w Tetracycline-free fetal bovine serum (FBS) and 250 μg/mL Zeocin. Clones were analyzed for expression of androgen receptor protein in the presence and absence of 10 ng/mL doxycycline (Sigma Cat #D9891), and a single doxycycline-inducible clone (hereinafter “SC3”) was selected for use in downstream assays.
(§6) The SC3 cells were seeded on poly-D-lysine coated, black clear-bottom 384-well plates at 2500/well, in 25 μL Phenol Red Free Dulbecco's Modified Eagle Medium (DMEM) supplemented with 10% w/w charcoal-dextran treated fetal bovine serum (FBS) and 1% w/w pen-strep, with or without 10 ng/mL doxycycline. Pen-Strep is a commercially available mixture of penicillin G and streptomycin, which is used in mammalian cell culture media to prevent bacterial contamination. Phenol Red Free Dulbecco's Modified Eagle Medium (DMEM) supplemented with 10% w/w charcoal-dextran treated fetal bovine serum (FBS) and 1% w/w pen-strep, with or without 10 ng/mL doxycycline is herein referred to as Treatment Medium. Following seeding of cells in the plates, the plates were spun at 300×g for 30 seconds, then equilibrated to room temperature for 30 minutes, and then deposited in a humidified tissue culture incubator maintained at 37° C. with 5% CO2.
as §1, §2, §3

[2] = tested on: T-Rex 293 cell line SC3 cells lacking increased expression of androgen receptor protein; assay: Cellular growth inhibition, T-Rex 293 SC3 cells without doxycycline (no increased androgen receptor expression), CellTiter-Glo; type: cell-based; conditions: T-Rex 293 SC3 cells not exposed to doxycycline (no increased androgen receptor expression), 72 hours
Procedure: as §4, §5, §6, §1, §2, §3

Structure (SMILES) | GI50 (VCaP cells; Homo sapiens) [nM] | GI50 [1] [nM] | GI50 [2] [nM] | GI50 (VCaP cells) [nM]
CCS(=O)(=O)Nc1ccc(Oc2cccc(C(=O)N(C)CCOC3CCN(c4ncc(C(=O)N[C@H]5C(C)(C)[C@H](Oc6ccc(C#N)c(Cl)c6)C5(C)C)cn4)CC3)c2)c(-c2cn(C)c(=O)c3[nH]ccc23)c1 [Compound I-66, N-((1r, 3r)-3-(3-chloro-4-cyanophenoxy)-2,2,4,4-tetramethylcyclobutyl)-2-(4-(2-(3-(4-(ethylsulfonamido)-2-(6-methyl-7-oxo-6,7-dihydro-1H-pyrrolo[2,3-c]pyridin-4-yl)phenoxy)-N-methylbenzamido)ethoxy)piperidin-1-yl)pyrimidine-5-carboxamide] | < 500 | < 500 | > 3000 | –
CCS(=O)(=O)Cc1ccc(Oc2cccc(OCCOC3CCN(c4ccc(C(=O)N[C@H]5C(C)(C)[C@H](Oc6ccc(C#N)c(Cl)c6)C5(C)C)cn4)CC3)c2F)c(-c2cn(C)c(=O)c3[nH]ccc23)c1 [Compound I-166] | < 500 | < 500 | < 500 | –
CCS(=O)(=O)Nc1ccc(Oc2cccc(CCCOC3CCN(c4ncc(C(=O)N[C@H]5C(C)(C)[C@H](Oc6ccc(C#N)c(Cl)c6)C5(C)C)cn4)CC3)c2F)c(-c2cn(C)c(=O)c3[nH]ccc23)c1 [Compound I-154] | < 500 | < 500 | < 500 | –
CCS(=O)(=O)Nc1ccc(Oc2cccc(N(CCN(C)C3CCN(c4ncc(C(=O)N[C@H]5C(C)(C)[C@H](Oc6ccc(C#N)c(Cl)c6)C5(C)C)cn4)CC3)C(C)C)c2F)c(-c2cn(C)c(=O)c3[nH]ccc23)c1 [Compound I-183] | – | < 500 | < 500 | < 500
Cn1cc(-c2cc(NS(=O)(=O)C3CC3)ccc2Oc2cccc(CCCN3CCN(c4ncc(C(=O)N[C@H]5C(C)(C)[C@H](Oc6ccc(C#N)c(Cl)c6)C5(C)C)cn4)CC3)c2F)c2cc[nH]c2c1=O [Compound I-135] | – | < 500 | > 3000 | < 500
CCS(=O)(=O)Nc1ccc(Oc2cccc(OCCCOCCCOC3CCN(c4ncc(C(=O)N[C@H]5C(C)(C)[C@H](Oc6ccc(C#N)c(Cl)c6)C5(C)C)cn4)CC3)c2)c(-c2cn(C)c(=O)c3[nH]ccc23)c1 [Compound I-12] | < 500 | < 500 | < 500 | –
CCS(=O)(=O)Nc1cnc(Oc2cccc(OCCOC3CCN(c4cnc(C(=O)N[C@H]5C(C)(C)[C@H](Oc6ccc(C#N)c(Cl)c6)C5(C)C)cn4)CC3)c2)c(-c2cn(C)c(=O)c3[nH]ccc23)c1 [Compound I-46] | < 500 | < 500 | > 3000 | –
CCS(=O)(=O)c1ccc(OCC(OCCOC2CCN(c3ncc(C(=O)N[C@H]4C(C)(C)[C@H](Oc5ccc(C#N)c(Cl)c5)C4(C)C)cn3)CC2)C2CC2)c(-c2cn(C)c(=O)c3[nH]ccc23)c1 (stereo partly shown) [Compound I-177] | – | < 500 | < 500 | < 500
CCS(=O)(=O)Nc1ccc(Oc2cccc(CCCCCOC3CCN(c4ncc(C(=O)N[C@H]5C(C)(C)[C@H](Oc6ccc(C#N)c(Cl)c6)C5(C)C)cn4)CC3)c2)c(-c2cn(C)c(=O)c3[nH]ccc23)c1 [Compound I-22] | < 500 | < 500 | < 500 | –
Cn1cc(-c2cc(NS(=O)(=O)C3CC3)ccc2Oc2cccc(CCOC3CCN(c4ncc(C(=O)N[C@H]5C(C)(C)[C@H](Oc6ccc(C#N)c(Cl)c6)C5(C)C)cn4)CC3)c2)c2cc[nH]c2c1=O [Compound I-145] | – | < 500 | > 3000 | 1500 to 3000
CC(C)c1ccc(Oc2cccc(OCCC3CCN(c4ncc(C(=O)N[C@H]5C(C)(C)[C@H](Oc6ccc(C#N)c(Cl)c6)C5(C)C)cn4)CC3)c2F)c(-c2cn(C)c(=O)c3[nH]ccc23)c1 [Compound I-132] | – | > 3000 | > 3000 | > 3000
CCS(=O)(=O)Nc1ccc(Oc2cccc(OCCCOC3CCN(c4ncc(C(=O)N[C@H]5C(C)(C)[C@H](Oc6ccc(C#N)c(Cl)c6)C5(C)C)cn4)CC3)c2)c(-c2cn(C)c(=O)c3[nH]ccc23)c1 [Compound I-17] | < 500 | < 500 | < 500 | –
CCS(=O)(=O)Cc1ccc(Oc2cccc(CCOC3CCN(c4ncc(C(=O)N[C@H]5C(C)(C)[C@H](Oc6ccc(C#N)c(Cl)c6)C5(C)C)cn4)CC3)c2)c(-c2cn(C)c(=O)c3[nH]ccc23)c1 [Compound I-159] | – | < 500 | < 500 | < 500
CCS(=O)(=O)Nc1ccc(Oc2cccc(OCCOCCOCCN(C)c3ncc(C(=O)N[C@H]4C(C)(C)[C@H](Oc5ccc(C#N)c(Cl)c5)C4(C)C)cn3)c2)c(-c2cn(C)c(=O)c3[nH]ccc23)c1 [Compound I-2] | – | < 500 | 1500 to 3000 | –
Cn1cc(-c2cc(C(C)(C)O)ccc2Oc2ccc(N3CC4(CCN(c5cnc(C(=O)N[C@H]6C(C)(C)[C@H](Oc7ccc(C#N)c(Cl)c7)C6(C)C)cn5)CC4)C3)cc2)c2cc[nH]c2c1=O [Compound I-352] | – | < 500 | > 3000 | < 500
CCS(=O)(=O)Nc1ccc(Oc2cccc(OCCC3CCN(c4ncc(C(=O)N[C@H]5C(C)(C)[C@H](Oc6ccc(C#N)c(Cl)c6)C5(C)C)cn4)CC3)c2)c(-c2cn(C)c(=O)c3[nH]ccc23)c1 [Compound I-26] | < 500 | < 500 | < 500 | –
CCS(=O)(=O)Nc1ccc(Oc2cccc(N(C)CCN(C)C3CCN(c4ncc(C(=O)N[C@H]5C(C)(C)[C@H](Oc6ccc(C#N)c(Cl)c6)C5(C)C)cn4)CC3)c2)c(-c2cn(C)c(=O)c3[nH]ccc23)c1 [Compound I-86] | < 500 | < 500 | < 500 | –
CCS(=O)(=O)Nc1ccc(Oc2cccc(OCCN3CCN(c4ncc(C(=O)N[C@H]5C(C)(C)[C@H](Oc6ccc(C#N)c(Cl)c6)C5(C)C)cn4)CC3)c2)c(-c2cn(C)c(=O)c3[nH]ccc23)c1 [Compound I-77] | < 500 | < 500 | < 500 | –
Cn1cc(-c2cc(NS(=O)(=O)C3CC3)ccc2Oc2cccc(CCOC3CCN(c4ncc(C(=O)N[C@H]5C(C)(C)[C@H](Oc6ccc(C#N)c(Cl)c6)C5(C)C)cn4)CC3)c2F)c2cc[nH]c2c1=O [Compound I-136] | – | < 500 | < 500 | < 500
CCS(=O)(=O)Nc1ccc(Oc2cccc(OCCN(C)C3CCN(c4ncc(C(=O)N[C@H]5C(C)(C)[C@H](Oc6ccc(C#N)c(Cl)c6)C5(C)C)cn4)CC3)c2)c(-c2cn(C)c(=O)c3[nH]ccc23)c1 [Compound I-87] | < 500 | < 500 | < 500 | –
CCS(=O)(=O)Nc1ccc(Oc2cccc(OC3CN(CC4CCN(c5ncc(C(=O)N[C@H]6C(C)(C)[C@H](Oc7ccc(C#N)c(Cl)c7)C6(C)C)cn5)CC4)C3)c2)c(-c2cn(C)c(=O)c3[nH]ccc23)c1 [Compound I-38] | < 500 | < 500 | < 500 | –
CCS(=O)(=O)Nc1ccc(Oc2cccc(OCCOCCOCCOCCOCCOCCOCCN(C)c3ncc(C(=O)N[C@H]4C(C)(C)[C@H](Oc5ccc(C#N)c(Cl)c5)C4(C)C)cn3)c2)c(-c2cn(C)c(=O)c3[nH]ccc23)c1 [Compound I-4] | – | < 500 | < 500 | –
